test system: G3BP1 NFT2; type: binding, human; details: library DMS-CoV; bait G3BP1 NFT2; prey N; peptide APRITFGGPSDSTGSN; listed as aa = residue placed at this position; column sums to 1

Sequence	DMS PSSM value, P (position 9)	DMS PSSM value, G (position 14)	DMS PSSM value, G (position 8)	DMS PSSM value, F (position 6)	DMS PSSM value, A (position 1)	DMS PSSM value, D (position 11)	DMS PSSM value, G (position 7)	DMS PSSM value, I (position 4)	DMS PSSM value, P (position 2)	DMS PSSM value, R (position 3)
APRITFGGPSDSTGSN P9G (APRITFGGGSDSTGSN)	0.003052									
APRITFGGPSDSTGSN G14M (APRITFGGPSDSTMSN)		0.3018								
APRITFGGPSDSTGSN G8K (APRITFGKPSDSTGSN)			0							
APRITFGGPSDSTGSN F6V (APRITVGGPSDSTGSN)				0						
APRITFGGPSDSTGSN	0.679	0.009135	0.05897	0.991	0.1536	0.2538	0.9101	0.9676	0.199	0.004269
APRITFGGPSDSTGSN F6W (APRITWGGPSDSTGSN)				0						
APRITFGGPSDSTGSN G7M (APRITFMGPSDSTGSN)							0			
APRITFGGPSDSTGSN P2G (AGRITFGGPSDSTGSN)									0	
APRITFGGPSDSTGSN G8E (APRITFGEPSDSTGSN)			0.0007374							
APRITFGGPSDSTGSN F6M (APRITMGGPSDSTGSN)				0						
APRITFGGPSDSTGSN R3M (APMITFGGPSDSTGSN)										0.03758
APRITFGGPSDSTGSN G14A (APRITFGGPSDSTASN)		0.007074								
APRITFGGPSDSTGSN P2M (AMRITFGGPSDSTGSN)									0	
APRITFGGPSDSTGSN A1H (HPRITFGGPSDSTGSN)					0.001405					
APRITFGGPSDSTGSN D11L (APRITFGGPSLSTGSN)						0.001888				
APRITFGGPSDSTGSN G7N (APRITFNGPSDSTGSN)							0			

Sequence	DMS PSSM value, P (position 9)	DMS PSSM value, G (position 14)	DMS PSSM value, G (position 8)	DMS PSSM value, F (position 6)	DMS PSSM value, A (position 1)	DMS PSSM value, D (position 11)	DMS PSSM value, G (position 7)	DMS PSSM value, I (position 4)	DMS PSSM value, P (position 2)	DMS PSSM value, R (position 3)
APRITFGGPSDSTGSN P2Y (AYRITFGGPSDSTGSN)									0	
APRITFGGPSDSTGSN R3A (APAITFGGPSDSTGSN)										0.0016
APRITFGGPSDSTGSN R3D (APDITFGGPSDSTGSN)										9.037e-5
APRITFGGPSDSTGSN P2R (ARRITFGGPSDSTGSN)									0	
APRITFGGPSDSTGSN D11A (APRITFGGPSASTGSN)						0.0135				
APRITFGGPSDSTGSN I4Q (APRQTFGGPSDSTGSN)								0		
APRITFGGPSDSTGSN P9W (APRITFGGWSDSTGSN)	0									
APRITFGGPSDSTGSN D11W (APRITFGGPSWSTGSN)						0.001161				
APRITFGGPSDSTGSN A1V (VPRITFGGPSDSTGSN)					0.004383					
APRITFGGPSDSTGSN D11F (APRITFGGPSFSTGSN)						0.001494				
APRITFGGPSDSTGSN A1P (PPRITFGGPSDSTGSN)					0.006009					
APRITFGGPSDSTGSN P2I (AIRITFGGPSDSTGSN)									0	
APRITFGGPSDSTGSN G7P (APRITFPGPSDSTGSN)							0			
APRITFGGPSDSTGSN F6S (APRITSGGPSDSTGSN)				0						
APRITFGGPSDSTGSN D11Y (APRITFGGPSYSTGSN)						0.02603				
APRITFGGPSDSTGSN R3G (APGITFGGPSDSTGSN)										0.02417

same assay, conditions: library DMS-CoV; bait G3BP1 NFT2; prey N; peptide APRITFGGPSDSTGSN; listed as aa = residue placed at this position; column sums to 1

Sequence	DMS PSSM value, S (position 10)	DMS PSSM value, S (position 12)	DMS PSSM value, S (position 15)	DMS PSSM value, T (position 5)	DMS PSSM value, T (position 13)
APRITFGGPSDSTGSN	0.07098	0.1222	0.03905	0.4961	0.03355
APRITFGGPSDSTGSN T5G (APRIGFGGPSDSTGSN)				0	
APRITFGGPSDSTGSN S12Y (APRITFGGPSDYTGSN)		0.2998			
APRITFGGPSDSTGSN S12F (APRITFGGPSDFTGSN)		0.0072			
APRITFGGPSDSTGSN T13N (APRITFGGPSDSNGSN)					0.01901
APRITFGGPSDSTGSN T5K (APRIKFGGPSDSTGSN)				0	
APRITFGGPSDSTGSN T5Q (APRIQFGGPSDSTGSN)				0	
APRITFGGPSDSTGSN S15E (APRITFGGPSDSTGEN)			0.0004817		
APRITFGGPSDSTGSN S10H (APRITFGGPHDSTGSN)	0				
APRITFGGPSDSTGSN S15I (APRITFGGPSDSTGIN)			0.3514		
APRITFGGPSDSTGSN T13Y (APRITFGGPSDSYGSN)					0.001423
APRITFGGPSDSTGSN S10V (APRITFGGPVDSTGSN)	0.01109				
APRITFGGPSDSTGSN T5N (APRINFGGPSDSTGSN)				0	
APRITFGGPSDSTGSN S10G (APRITFGGPGDSTGSN)	0				
APRITFGGPSDSTGSN S12N (APRITFGGPSDNTGSN)		0.001178			
APRITFGGPSDSTGSN S15T (APRITFGGPSDSTGTN)			0.008335		
APRITFGGPSDSTGSN S10K (APRITFGGPKDSTGSN)	0.006118				
APRITFGGPSDSTGSN S10Q (APRITFGGPQDSTGSN)	0.008177				
APRITFGGPSDSTGSN S10T (APRITFGGPTDSTGSN)	0.01147				
APRITFGGPSDSTGSN S12E (APRITFGGPSDETGSN)		0.0009188			
APRITFGGPSDSTGSN T13P (APRITFGGPSDSPGSN)					0.005019

same assay, conditions: library DMS-CoV; bait G3BP1 NFT2; prey N; peptide RNAPRITFGGPSDSTG; listed as aa = residue placed at this position; column sums to 1

Sequence	DMS PSSM value, S (position 12)	DMS PSSM value, D (position 13)	DMS PSSM value, G (position 16)	DMS PSSM value, A (position 3)	DMS PSSM value, P (position 4)	DMS PSSM value, R (position 5)	DMS PSSM value, S (position 14)	DMS PSSM value, I (position 6)	DMS PSSM value, P (position 11)	DMS PSSM value, G (position 9)
RNAPRITFGGPSDSTG S12F (RNAPRITFGGPFDSTG)	0									
RNAPRITFGGPSDSTG D13Q (RNAPRITFGGPSQSTG)		0								
RNAPRITFGGPSDSTG G16Q (RNAPRITFGGPSDSTQ)			0							
RNAPRITFGGPSDSTG A3G (RNGPRITFGGPSDSTG)				0.6104						
RNAPRITFGGPSDSTG P4R (RNARRITFGGPSDSTG)					0					
RNAPRITFGGPSDSTG P4M (RNAMRITFGGPSDSTG)					0					
RNAPRITFGGPSDSTG D13F (RNAPRITFGGPSFSTG)		0								
RNAPRITFGGPSDSTG R5K (RNAPKITFGGPSDSTG)						0.0001577				
RNAPRITFGGPSDSTG S14F (RNAPRITFGGPSDFTG)							0			
RNAPRITFGGPSDSTG I6A (RNAPRATFGGPSDSTG)								0		
RNAPRITFGGPSDSTG A3R (RNRPRITFGGPSDSTG)				0						
RNAPRITFGGPSDSTG I6M (RNAPRMTFGGPSDSTG)								0		
RNAPRITFGGPSDSTG S14N (RNAPRITFGGPSDNTG)							0.6905			
RNAPRITFGGPSDSTG P11W (RNAPRITFGGWSDSTG)									0	
RNAPRITFGGPSDSTG S12N (RNAPRITFGGPNDSTG)	0									
RNAPRITFGGPSDSTG D13S (RNAPRITFGGPSSSTG)		0								
RNAPRITFGGPSDSTG G9R (RNAPRITFRGPSDSTG)										0
RNAPRITFGGPSDSTG A3I (RNIPRITFGGPSDSTG)				0						

Sequence	DMS PSSM value, S (position 12)	DMS PSSM value, D (position 13)	DMS PSSM value, G (position 16)	DMS PSSM value, A (position 3)	DMS PSSM value, P (position 4)	DMS PSSM value, R (position 5)	DMS PSSM value, S (position 14)	DMS PSSM value, I (position 6)	DMS PSSM value, P (position 11)	DMS PSSM value, G (position 9)
RNAPRITFGGPSDSTG A3H (RNHPRITFGGPSDSTG)				0						
RNAPRITFGGPSDSTG S14V (RNAPRITFGGPSDVTG)							0			
RNAPRITFGGPSDSTG A3F (RNFPRITFGGPSDSTG)				0						
RNAPRITFGGPSDSTG G16Y (RNAPRITFGGPSDSTY)			0							
RNAPRITFGGPSDSTG G9W (RNAPRITFWGPSDSTG)										0
RNAPRITFGGPSDSTG S12P (RNAPRITFGGPPDSTG)	0									
RNAPRITFGGPSDSTG G9M (RNAPRITFMGPSDSTG)										0
RNAPRITFGGPSDSTG I6S (RNAPRSTFGGPSDSTG)								0		
RNAPRITFGGPSDSTG S14E (RNAPRITFGGPSDETG)							0			
RNAPRITFGGPSDSTG P4K (RNAKRITFGGPSDSTG)					0					
RNAPRITFGGPSDSTG A3P (RNPPRITFGGPSDSTG)				0						
RNAPRITFGGPSDSTG G16N (RNAPRITFGGPSDSTN)			1							
RNAPRITFGGPSDSTG G16H (RNAPRITFGGPSDSTH)			0							
RNAPRITFGGPSDSTG A3E (RNEPRITFGGPSDSTG)				0.2371						
RNAPRITFGGPSDSTG P4H (RNAHRITFGGPSDSTG)					0					
RNAPRITFGGPSDSTG I6F (RNAPRFTFGGPSDSTG)								0		
RNAPRITFGGPSDSTG G9S (RNAPRITFSGPSDSTG)										0

same assay, conditions: library DMS-CoV; bait G3BP1 NFT2; prey N; peptide RNAPRITFGGPSDSTG; listed as aa = residue placed at this position; column sums to 1

Sequence	DMS PSSM value, N (position 2)	DMS PSSM value, F (position 8)	DMS PSSM value, T (position 15)	DMS PSSM value, T (position 7)	DMS PSSM value, G (position 10)
RNAPRITFGGPSDSTG N2P (RPAPRITFGGPSDSTG)	0				
RNAPRITFGGPSDSTG F8R (RNAPRITRGGPSDSTG)		0			
RNAPRITFGGPSDSTG N2F (RFAPRITFGGPSDSTG)	0				
RNAPRITFGGPSDSTG F8P (RNAPRITPGGPSDSTG)		0			
RNAPRITFGGPSDSTG T15H (RNAPRITFGGPSDSHG)			0		
RNAPRITFGGPSDSTG T7P (RNAPRIPFGGPSDSTG)				0	
RNAPRITFGGPSDSTG F8D (RNAPRITDGGPSDSTG)		0			
RNAPRITFGGPSDSTG T15S (RNAPRITFGGPSDSSG)			0		
RNAPRITFGGPSDSTG G10L (RNAPRITFGLPSDSTG)					0
RNAPRITFGGPSDSTG F8H (RNAPRITHGGPSDSTG)		0			
RNAPRITFGGPSDSTG F8W (RNAPRITWGGPSDSTG)		0			
